Assay results: article PMC11203576 (International Journal of Molecular Sciences, 2024)

Molecular target: MVL (rMVL) (Microcystis viridis, UniProt Q9RHG4)
Assay type: binding

Chain of MVL (rMVL) (Q9RHG4 2-114 limits assumed): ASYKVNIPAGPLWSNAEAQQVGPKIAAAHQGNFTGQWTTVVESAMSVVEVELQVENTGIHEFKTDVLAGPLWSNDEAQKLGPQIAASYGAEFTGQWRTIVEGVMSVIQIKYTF

For `OC[C@H]1OC(O)[C@H](O)[C@@H](O)[C@H]1O` (stereo partly shown) [galactose], the “% SPR signal retained at 100 mM” value was ~ 40%.
